From US7745191B2, “Method of producing heterodimer derivative of protein phosphatase type 2A enzyme” (Tropical Technology Center Ltd., priority 2005, dated 2010)

Experiment: Phosphatase activity of the purified protein using p-nitrophenylphosphate as substrate
Type: biochemical
Conditions: infected High Five cells incubated at 19° C. for 4 days versus 27° C. for 3 days (comparative example); FIG. 4
Procedure: By SDS-PAGE (0.2 μg of protein; 10% SDS-gel), the purified recombinant protein in the recovered eluate was confirmed. The activity of the purified protein was determined according to a method using p-nitrophenylphosphate as substrate (Takai et al. 1995, Biochem J. 306:657-665).
In both figures, the term “27° C.” indicates the tagged catalytic unit of PP2A (comparative example), which was prepared in the same manner as in Example 3 except that the cells infected with the recombinant baculovirus was incubated at 27° C. for 3 days. In FIG. 3, the both end side lanes indicate a marker, the 2nd lane from left indicates the tagged catalytic unit of PP2A prepared by incubation at 27° C., and the 3rd lane from left indicates the tagged catalytic unit of PP2A prepared by incubation at 19° C.

tagged catalytic unit of PP2A: Recombinant human PP2A catalytic subunit carrying a polyhistidine tag (His-PP2Acα, His-PP2Acβ), expressed in baculovirus-infected High Five cells
enhancement of activity to p-nitrophenylphosphate: ≥ 6 times
